pIC50: −log10 of the molar value. Where a name gives a salt, the structure may show the parent alone.

For the first experiment, the target named is T1, IRAK4 (Homo sapiens, UniProt Q9NWZ3).
T1 sequence (Q9NWZ3 1-460): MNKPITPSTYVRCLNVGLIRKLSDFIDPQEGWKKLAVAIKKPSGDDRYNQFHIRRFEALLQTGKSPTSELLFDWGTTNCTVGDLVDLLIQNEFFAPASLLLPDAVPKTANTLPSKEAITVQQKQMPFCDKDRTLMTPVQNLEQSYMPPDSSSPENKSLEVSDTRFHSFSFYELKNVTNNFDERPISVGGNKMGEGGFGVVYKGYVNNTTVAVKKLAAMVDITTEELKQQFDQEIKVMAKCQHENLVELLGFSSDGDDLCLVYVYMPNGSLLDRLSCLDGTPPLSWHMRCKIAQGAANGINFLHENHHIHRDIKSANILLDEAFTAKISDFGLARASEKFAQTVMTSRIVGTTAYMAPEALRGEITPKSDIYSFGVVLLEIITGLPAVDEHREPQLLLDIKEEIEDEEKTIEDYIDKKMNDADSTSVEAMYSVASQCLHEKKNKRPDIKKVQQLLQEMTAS
The experiment in a line: biochemical.
Conditions: not given
Broadly, the pIC50 is the negative decadic logarithm of the IC50, by convention in mol/L. The low end stands for a high IC50, the high end for a low IC50. In the case of `CC(C)(C)c1cn2cc(C(=O)Nc3cccc(C(F)F)n3)c(OC3COC4(CC4)C3)cc2n1` (stereo not shown) [Example 268, 7-((4-Oxaspiro[2.4]heptan-6-yl)oxy)-2-(tert-butyl)-N-(6-(difluoromethyl)pyridin-2-yl)imidazo[1,2-a]pyridine-6-carboxamide], the pIC50 was 8.08.

`CC(C)Oc1c(C(=O)Nc2cccc(C(F)F)n2)cn2cc(C34COC(CF)(C3)C4)nc2c1F` [Example 269, N-(6-(Difluoromethyl)pyridin-2-yl)-8-fluoro-2-(1-(fluoromethyl)-2-oxabicyclo[2.1.1]hexan-4-yl)-7-isopropoxyimidazo[1,2-a]pyridine-6-carboxamide] had a pIC50 of 8.92.

In turn, `Cc1cnc2c(NC(=O)c3cn4cc(C56COC(CF)(C5)C6)nc4c(F)c3OC(C)C)cnn2c1` [Example 270, 8-Fluoro-2-(1-(fluoromethyl)-2-oxabicyclo[2.1.1]hexan-4-yl)-7-isopropoxy-N-(6-methylpyrazolo[1,5-a]pyrimidin-3-yl)imidazo[1,2-a]pyridine-6-carboxamide] gave a pIC50 of 8.64.

Regarding `CCOc1nc(C(=O)Nc2cc(F)cnc2OC)cn2cc(C3CCCOC3)nc12` (stereo not shown) [Example 271, 8-Ethoxy-N-(5-fluoro-2-methoxypyridin-3-yl)-2-(tetrahydro-2H-pyran-3-yl)imidazo[1,2-a]pyrazine-6-carboxamide], the pIC50 was 8.14.

Molecule `CCOc1nc(C(=O)Nc2cc(F)cn(C)c2=O)cn2cc(C3CCCOC3)nc12` (stereo not shown) [Example 272, 8-Ethoxy-N-(5-fluoro-1-methyl-2-oxo-1,2-dihydropyridin-3-yl)-2-(tetrahydro-2H-pyran-3-yl)imidazo[1,2-a]pyrazine-6-carboxamide] had a pIC50 of 8.01.

Take `CCOc1nc(C(=O)Nc2cccnc2OC)cn2cc(C3CCOC3)nc12` (stereo not shown) [Example 273, 8-Ethoxy-N-(2-methoxypyridin-3-yl)-2-(tetrahydrofuran-3-yl)imidazo[1,2-a]pyrazine-6-carboxamide]: the pIC50 is 8.33.

The molecule `CCOc1nc(C(=O)Nc2cccc(C(F)F)n2)cn2cc(C34CCC(C)(C3)OC4)nc12` (stereo not shown) [Example 274, N-(6-(difluoromethyl)pyridin-2-yl)-8-ethoxy-2-(1-methyl-2-oxabicyclo[2.2.1]heptan-4-yl)imidazo[1,2-a]pyrazine-6-carboxamide] gave a pIC50 of 8.80.

Molecule `Cn1ccc(NC(=O)c2cn3cc(C4CC4)nc3c(OC3CC3)n2)n1` [Example 281, 8-Cyclopropoxy-2-cyclopropyl-N-(1-methyl-1H-pyrazol-3-yl)imidazo[1,2-a]pyrazine-6-carboxamide] had a pIC50 of 7.58.

For `CCOc1nc(C(=O)Nc2ccn(CC3CC3)n2)cn2cc(C34CCC(C)(C3)OC4)nc12` (stereo not shown) [Example 282, N-(1-(cyclopropylmethyl)-1H-pyrazol-3-yl)-8-ethoxy-2-(1-methyl-2-oxabicyclo[2.2.1]heptan-4-yl)imidazo[1,2-a]pyrazine-6-carboxamide], the pIC50 is 8.06.

As to `COc1ncccc1NC(=O)c1cn2cc(C3CC3)nc2nc1OC(C)C` [Example 283, 2-Cyclopropyl-7-isopropoxy-N-(2-methoxypyridin-3-yl)imidazo[1,2-a]pyrimidine-6-carboxamide], the pIC50 is 8.60.

With `Cn1ccc(NC(=O)c2cn3cc(C45COC(C)(C4)C5)nc3nc2OC2CCCC2)n1` [Example 285, 7-(Cyclopentyloxy)-N-(1-methyl-1H-pyrazol-3-yl)-2-(1-methyl-2-oxabicyclo[2.1.1]hexan-4-yl)imidazo[1,2-a]pyrimidine-6-carboxamide], the pIC50 was 8.22.

Regarding `COCc1cc2nc(C34COC(C)(C3)C4)cn2cc1C(=O)Nc1ccn(C)n1` [Example 286, 7-(Methoxymethyl)-N-(1-methyl-1H-pyrazol-3-yl)-2-(1-methyl-2-oxabicyclo[2.1.1]hexan-4-yl)imidazo[1,2-a]pyridine-6-carboxamide], the pIC50 was 5.22.

`COCc1cc2nc(C34COC(C)(C3)C4)cn2cc1C(=O)Nc1cccn(C)c1=O` [Example 287, 7-(Methoxymethyl)-N-(1-methyl-2-oxo-1,2-dihydropyridin-3-yl)-2-(1-methyl-2-oxabicyclo[2.1.1]hexan-4-yl)imidazo[1,2-a]pyridine-6-carboxamide] gave a pIC50 of 5.15.

`COCc1cc2nc(C34COC(C)(C3)C4)cn2cc1C(=O)Nc1cnn2cc(C)cnc12` [Example 288, 7-(Methoxymethyl)-2-(1-methyl-2-oxabicyclo[2.1.1]hexan-4-yl)-N-(6-methylpyrazolo[1,5-a]pyrimidin-3-yl)imidazo[1,2-a]pyridine-6-carboxamide] showed a pIC50 of 5.91.

`COc1c(C(=O)Nc2cccc(C(F)F)n2)cn2cc(C34COC(C)(C3)C4)nc2c1C` [Example 290, N-(6-(difluoromethyl)pyridin-2-yl)-7-methoxy-8-methyl-2-(1-methyl-2-oxabicyclo[2.1.1]hexan-4-yl)imidazo[1,2-a]pyridine-6-carboxamide]: the pIC50 was 7.56.

Regarding `COc1ncccc1NC(=O)c1cn2cc(C34COC(C)(C3)C4)nc2c(C)c1OC` [Example 291, 7-Methoxy-N-(2-methoxypyridin-3-yl)-8-methyl-2-(1-methyl-2-oxabicyclo[2.1.1]hexan-4-yl)imidazo[1,2-a]pyridine-6-carboxamide], the pIC50 was 7.90.

In turn, `COc1cc2nc(C34COC(C)(C3)C4)cn2cc1C(=O)Nc1cccc(C(F)F)n1` [Example 293, N-(6-(difluoromethyl)pyridin-2-yl)-7-methoxy-2-(1-methyl-2-oxabicyclo[2.1.1]hexan-4-yl)imidazo[1,2-a]pyridine-6-carboxamide] showed a pIC50 of 8.55.

`CC(C)Oc1cc2nc(C(F)(F)F)cn2cc1C(=O)Nc1cccc(C(F)F)n1` [Example 294, N-(6-(difluoromethyl)pyridin-2-yl)-7-isopropoxy-2-(trifluoromethyl)imidazo[1,2-a]pyridine-6-carboxamide] gave a pIC50 of 8.25.

The experiment is the same for the next values; noted with them: IRAK4 Biochemical Assay (1 mM ATP, 2 h) IC50 (μM), 1 mM ATP, 2 h, 100 pM IRAK4.
In general, IC50 refers to the point on the concentration scale where inhibition reaches its midpoint. For the molecule `CCCOc1nc(C(=O)Nc2cccnc2OC)cn2cc(C34CCC(C)(C3)OC4)nc12` (stereo not shown) [Example 275, N-(2-methoxypyridin-3-yl)-2-(1-methyl-2-oxabicyclo[2.2.1]heptan-4-yl)-8-propoxyimidazo[1,2-a]pyrazine-6-carboxamide trifluoroacetate], the IC50 was 0.0007 µM.

Molecule `CCOc1nc(C(=O)Nc2cccnc2OC)cn2cc(C34CCC(C)(C3)OC4)nc12` (stereo not shown) [Example 276, 8-Ethoxy-N-(2-methoxypyridin-3-yl)-2-(1-methyl-2-oxabicyclo[2.2.1]heptan-4-yl)imidazo[1,2-a]pyrazine-6-carboxamide trifluoroacetate] showed an IC50 of 0.0009 µM.

In turn, `CCOc1nc(C(=O)Nc2cc(F)cn(C)c2=O)cn2cc(C34CCC(C)(C3)OC4)nc12` (stereo not shown) [Example 277, 8-Ethoxy-N-(5-fluoro-1-methyl-2-oxo-1,2-dihydropyridin-3-yl)-2-(1-methyl-2-oxabicyclo[2.2.1]heptan-4-yl)imidazo[1,2-a]pyrazine-6-carboxamide trifluoroacetate] registered an IC50 of 0.0061 µM.

Molecule `CCOc1nc(C(=O)Nc2cccc3ccnn23)cn2cc(C34CCC(C)(C3)OC4)nc12` (stereo not shown) [Example 278, 8-Ethoxy-2-(1-methyl-2-oxabicyclo[2.2.1]heptan-4-yl)-N-(pyrazolo[1,5-a]pyridin-7-yl)imidazo[1,2-a]pyrazine-6-carboxamide trifluoroacetate] gave a 50% inhibitory concentration (IC50) of 0.0011 µM.

Take `CCOc1nc(C(=O)Nc2cccnc2OC)cn2cc(C3CC3)nc12` [Example 279, 2-Cyclopropyl-8-ethoxy-N-(2-methoxypyridin-3-yl)imidazo[1,2-a]pyrazine-6-carboxamide trifluoroacetate]: 0.0038 µM corresponded to half-maximal inhibition (IC50).

`Cc1cnc2c(NC(=O)c3cn4cc(C5CC5)nc4cc3OC(C)C)cnn2c1` [Example 280, 2-Cyclopropyl-7-isopropoxy-N-(6-methylpyrazolo[1,5-a]pyrimidin-3-yl)imidazo[1,2-a]pyridine-6-carboxamide trifluoroacetate] showed an IC50 of 0.0019 µM.

Consider `CC(C)Oc1cc2nc(C34CCC(C)(C3)OC4)cn2cc1C(=O)Nc1cc(F)n(C)n1` (stereo not shown) [Example 284, N-(5-fluoro-1-methyl-1H-pyrazol-3-yl)-7-isopropoxy-2-(1-methyl-2-oxabicyclo[2.2.1]heptan-4-yl)imidazo[1,2-a]pyridine-6-carboxamide trifluoroacetate], for which the IC50 stood at 0.0056 µM.

Molecule `CC(C)Oc1cc2nc(C34COC(CF)(C3)C4)cn2cc1C(=O)Nc1cccc(C(F)F)n1` [Example 289, N-(6-(difluoromethyl)pyridin-2-yl)-2-(1-(fluoromethyl)-2-oxabicyclo[2.1.1]hexan-4-yl)-7-isopropoxyimidazo[1,2-a]pyridine-6-carboxamide] displayed an IC50 of 0.0002 µM.

`Cc1cnc2c(NC(=O)c3cn4cc(C56COC(C)(C5)C6)nc4c(F)c3OC(C)C)cnn2c1` [Example 292, 8-Fluoro-7-isopropoxy-2-(1-methyl-2-oxabicyclo[2.1.1]hexan-4-yl)-N-(6-methylpyrazolo[1,5-a]pyrimidin-3-yl)imidazo[1,2-a]pyridine-6-carboxamide trifluoroacetate] showed an IC50 of 0.0026 µM.

Consider `CC(C)Oc1cc2nc(C34COC(C)(C3)C4)cn2cc1C(=O)Nc1nccc(C(F)F)n1` [Example 295, N-(4-(difluoromethyl)pyrimidin-2-yl)-7-isopropoxy-2-(1-methyl-2-oxabicyclo[2.1.1]hexan-4-yl)imidazo[1,2-a]pyridine-6-carboxamide trifluoroacetate], for which the IC50 stood at 0.0097 µM.

Source of the values: patent publication US20230087118A1, “IMIDAZO[1,2-a][sequence] DERIVATIVES AND THEIR USE IN THE TREATMENT OF DISEASE” (priority 2019, published 2023).
